Test results reported in ChEMBL document CHEMBL4819120, “Identification of non-covalent 3C-like protease inhibitors against severe acute respiratory syndrome coronavirus-2 via virtual screening of a Korean compound library” (Bioorg Med Chem Lett, 2021).

Columns and labels:
Vero C1008 = experiment: Cytotoxicity against African green monkey Vero E6 cells; assay type: cell-based; settings: chlorocebus sabaeus
SARS-CoV-2 = experiment: microbe, parasite or virus in culture; settings: Severe acute respiratory syndrome coronavirus 2, Vero C1008
Description: Antiviral activity against SARS-CoV-2 infected in monkey Vero E6 cells

[1] = Inhibition of SARS-CoV-2 3CL protease using DABCYL-KTSAVLQ-SGFRKME-EDANS fluorogenic peptide as substrate by fluorescence assay; set-up: species or system Severe acute respiratory syndrome coronavirus 2

SMILES | CC50 (Vero C1008) [µM] | EC50 (SARS-CoV-2) [µM] | IC50 [1] [µM]
Cc1cc(C)cc(Nc2nc(C)cc3nn(CC(=O)Nc4cc(F)ccc4F)c(=O)n23)c1 | 469 | 141 | 8
Cc1ccc(Cl)cc1NC(=O)Cn1nc2c(Oc3ccc(C(C)C)cc3)nccn2c1=O |  |  | 8.9
Cc1ccc(Cn2c(=O)c3ccccc3n3c(=O)n(CC(=O)Nc4ccc(F)cc4F)nc23)cc1 |  |  | 9.5
Cc1cc(C)cc(Nc2nc(C)cc3nn(CC(=O)Nc4ccccc4F)c(=O)n23)c1 |  |  | 10.9
O=C(Cn1c2ccccc2n2c(=O)cc(-c3ccc(Cl)cc3)nc12)Nc1ccc(F)cc1F | 454 | 39.9 | 5.7
Cc1cc2nn(CC(=O)Nc3ccccc3F)c(=O)n2c(Nc2ccccc2C)n1 |  |  | 8.7
CCc1ccc(NC(=O)Cn2nc3n(Cc4ccc(F)cc4)c(=O)c4ccccc4n3c2=O)cc1 |  |  | 12.1
